Key:
Type in all cases: in vivo
[1] = system: Heliothis virescens; assay: Heliothis virescens (tobacco budworm), eggs on artificial diet; details: application rate 200 ppm, eggs 0-24 h old on artificial diet, 5 days after infestation, read-out: control (at least one of egg mortality, larval mortality, growth inhibition)
Method: Eggs (0-24 h old) were placed in 24-well microtiter plates on artificial diet and treated with aqueous test solutions prepared from 10′000 ppm DMSO stock solutions by pipetting. The samples were assessed for egg mortality, larval mortality and growth inhibition 5 days after infestation. Control of Heliothis virescens by a test sample is noted when at least one of egg mortality, larval mortality and growth inhibition is better than the untreated sample.

[2] = system: Diabrotica balteata; assay: Diabrotica balteata (corn root worm), sprayed maize sprouts; details: 96 h, application rate 200 ppm, L2 larvae on sprayed maize sprouts, 4 days after infestation, read-out: control (at least one of mortality, growth inhibition)
Method: Maize sprouts, placed on an agar layer in 24-well microtiter plates were treated with aqueous test solutions prepared from 10′000 ppm DMSO stock solutions by spraying. After drying, the plates were infested with L2 larvae (6 to 10 per well). The samples were assessed for mortality and growth inhibition 4 days after infestation. Control of Diabrotica balteata by a test sample is noted when at least one of mortality and growth inhibition is better than the untreated sample.

[3] = system: Thrips tabaci; assay: Thrips tabaci (onion thrips), sprayed sunflower leaf discs; details: foliar, 144 h, application rate 200 ppm, mixed ages on sunflower leaf discs, 6 days after infestation, read-out: control (mortality)
Method: (§1) Sunflower leaf discs were placed on agar in 24-well microtiter plates and sprayed with aqueous test solutions prepared from 10′000 ppm DMSO stock solutions. After drying the leaf discs were infested with a thrips population of mixed ages. The samples were assessed for mortality 6 days after infestation.

[4] = system: Tetranychus urticae; assay: Tetranychus urticae (two-spotted spider mite), sprayed bean leaf discs; details: foliar, 192 h, application rate 200 ppm, mixed ages on bean leaf discs, 8 days after infestation, read-out: control (mortality, mobile stages)
Method: as §1, with “Bean” for “Sunflower”, “discs” for “discs were placed”, “were” for “and”, “mite” for “thrips”, “(mobile stages) 8” for “6”

[5] = system: Spodoptera littoralis; assay: Spodoptera littoralis (Egyptian cotton leaf worm), sprayed cotton leaf discs; details: foliar, 72 h, application rate 200 ppm, L1 larvae on cotton leaf discs, 3 days after infestation, read-out: control (at least one of mortality, anti-feedant effect, growth inhibition)
Method: Cotton leaf discs were placed on agar in 24-well microtiter plates and sprayed with aqueous test solutions prepared from 10′000 ppm DMSO stock solutions. After drying the leaf discs were infested with five L1 larvae. The samples were assessed for mortality, anti-feedant effect, and growth inhibition 3 days after infestation. Control of Spodoptera littoralis by a test sample is noted when at least one of mortality, anti-feedant effect, and growth inhibition is better than the untreated sample.

[6] = system: Plutella xylostella; assay: Plutella xylostella (diamond back moth), artificial diet; details: 120 h, application rate 200 ppm, L2 larvae on artificial diet, 5 days after infestation, read-out: control (at least one of mortality, growth inhibition)
Method: 24-well microtiter plates with artificial diet were treated with aqueous test solutions prepared from 10′000 ppm DMSO stock solutions by pipetting. After drying, the plates were infested with L2 larvae (10 to 15 per well). The samples were assessed for mortality and growth inhibition 5 days after infestation. Control of Plutella xyllostella by a test sample is noted when at least one of mortality and growth inhibition is better than the untreated sample.

CCN1OC[C@@H](NC(=O)c2ccc(C3=CS[C@](c4cc(Cl)cc(Cl)c4)(C(F)(F)F)C3)cc2C)C1=O [Compound D3, 4-[(2R)-2-(3,5-dichlorophenyl)-2-(trifluoromethyl)-3H-thiophen-4-yl]-N-[(4R)-2-ethyl-3-oxo-isoxazolidin-4-yl]-2-methyl-benzamide]
≥ 80%: mortality at 200 ppm [1] | mortality at 200 ppm [2] | mortality at 200 ppm [3] | mortality at 200 ppm [4] | percent control (mortality, anti-feedant effect or growth inhibition) at 200 ppm [5] | mortality at 200 ppm [6]

Cc1cc(C2=CS[C@](c3cc(Cl)cc(Cl)c3)(C(F)(F)F)C2)ccc1C(=O)N[C@H]1C[S@@+]([O-])C1 [Compound D4, 4-[(2R)-2-(3,5-dichlorophenyl)-2-(trifluoromethyl)-3H-thiophen-4-yl]-2-methyl-N-(1-oxothietan-3-yl)benzamide]
≥ 80%: mortality at 200 ppm [1] | mortality at 200 ppm [2] | mortality at 200 ppm [3] | mortality at 200 ppm [4] | percent control (mortality, anti-feedant effect or growth inhibition) at 200 ppm [5] | mortality at 200 ppm [6]

— patent publication US10517294B2, “Dihydrothiophene derivatives as insecticidal compounds” (priority 2012, dated 2019)
